Read-outs that look alike come from different tables or passages of the source.
What was measured:
Format in all cases: cell-based, human
cancer cell lines = assay: Cell viability analysis (WST-1) on cancer cell lines; details: drug 10 μM, 72 hours, WST-1; Table 3
[1] = test system: Hep3B (hepatocellular carcinoma); assay: Cell viability analysis, hepatic cancer Hep3B; details: Hep3B
[2] = test system: LoVo (Colorectal Adenocarcinoma); assay: Cell viability analysis, colon cancer LoVo; details: LoVo; for viability at 10 µM: Homo sapiens, 72 h
[3] = test system: BCC (basal cell carcinoma); assay: Cell viability analysis, skin cancer BCC
[4] = test system: C-33A (Cervical carcinoma); assay: Cell viability analysis, cervical cancer C-33A
T24 = assay: Cell viability analysis, bladder cancer T24
[5] = test system: MDA-MB-231 (Mammary Gland, Adenocarcinoma); assay: Cell viability analysis, breast cancer MDA-MB-231
BxPC-3 = assay: Cell viability analysis, pancreatic cancer BxPC-3
AsPC-1 = assay: Cell viability analysis, pancreatic cancer AsPC-1
NIH: OVCAR-3 = assay: Cell viability analysis, ovarian cancer NIH: OVCAR-3
[6] = test system: SAS (Tongue squamous cell carcinoma); assay: Cell viability analysis, tongue cancer SAS
U-2OS = assay: Cell viability analysis, osteosarcoma U-2OS; details: U2OS
[7] = test system: 786-O (Renal adenocarcinoma); assay: Cell viability analysis, renal cancer 786-O
[8] = test system: HI650 (Lung Adenocarcinoma); assay: Cell viability analysis, lung cancer HI650; details: H1650; repeated experiment
[9] = test system: A549 (Lung Adenocarcinoma); assay: Cell viability analysis, lung cancer A549; details: A549; repeated experiment
[10] = test system: MKN-45 (Gastric Adenocarcinoma); assay: Cell viability analysis, gastric cancer MKN-45; details: MKN-45; repeated experiment
[11] = test system: A375 (Amelanotic Melanoma); assay: Cell viability analysis, skin cancer A375; details: A375; repeated experiment
[12] = test system: HeLa (Cervix Adenocarcinoma); assay: Cell viability analysis, cervical cancer HeLa; details: HeLa; repeated experiment
[13] = test system: MCF7 (Mammary Gland, Adenocarcinoma); assay: Cell viability analysis, breast cancer MCF7; details: MCF-7; repeated experiment
TOV-21G = assay: Cell viability analysis, ovarian cancer TOV-21G; details: TOV-21G; repeated experiment

## CC(C)c1nc(CN(C)C(=O)N[C@H](C(=O)N[C@@H](Cc2ccccc2)C[C@H](O)[C@H](Cc2ccccc2)NC(=O)OCc2cncs2)C(C)C)cs1 [Ritonavir]
Cancer cell lines
  inhibition effect on different cancer cell lines: significant inhibition effect
[1]; Homo sapiens, 72 h, read-out: The results of antibiotic drug inhibiting cancer cell lines (cell viability analysis), Hep3B
  viability at 10 µM: 102%
[2]; read-out: The results of antibiotic drug inhibiting cancer cell lines (cell viability analysis), LoVo, repeated experiment
  viability at 10 µM: 90.2%
[2]; read-out: cell viability (survival rate), LoVo, drug 10 μM, 72 hours, WST-1, OD450 nm
  viability at 10 µM: 82.3%
[3]; Homo sapiens, 72 h, read-out: The results of antibiotic drug inhibiting cancer cell lines (cell viability analysis), BCC
  viability at 10 µM: 86.4%
[4]; Homo sapiens, C-33-A, 72 h, read-out: The results of antibiotic drug inhibiting cancer cell lines (cell viability analysis), C-33A
  viability at 10 µM: 111%
T24; Homo sapiens, T-24, 72 h, read-out: The results of antibiotic drug inhibiting cancer cell lines (cell viability analysis), T24
  viability at 10 µM: 97.3%
[5]; Homo sapiens, MDA-MB-231, 72 h, read-out: The results of antibiotic drug inhibiting cancer cell lines (cell viability analysis), MDA-MB231
  viability at 10 µM: 102%
BxPC-3; Homo sapiens, BXPC-3, 72 h, read-out: The results of antibiotic drug inhibiting cancer cell lines (cell viability analysis), BxPC-3
  viability at 10 µM: 89.6%
AsPC-1; Homo sapiens, ASPC1, 72 h, read-out: The results of antibiotic drug inhibiting cancer cell lines (cell viability analysis), AsPC-1
  viability at 10 µM: 88.6%
NIH: OVCAR-3; Homo sapiens, OVCAR-3, 72 h, read-out: The results of antibiotic drug inhibiting cancer cell lines (cell viability analysis), NIH-OVCAR-3
  viability at 10 µM: 92.2%
[6]; Homo sapiens, 72 h, read-out: The results of antibiotic drug inhibiting cancer cell lines (cell viability analysis), SAS
  viability at 10 µM: 73.2%
U-2OS; Homo sapiens, 72 h, read-out: The results of antibiotic drug inhibiting cancer cell lines (cell viability analysis), U2OS
  viability at 10 µM: 87.1%
[7]; Homo sapiens, 786-0, 72 h, read-out: The results of antibiotic drug inhibiting cancer cell lines (cell viability analysis), 786-O
  viability at 10 µM: 102%

## Cc1onc(-c2ccccc2Cl)c1C(=O)N[C@@H]1C(=O)N2[C@@H]1SC(C)(C)[C@@H]2C(=O)[O-].[Na+] [Cloxacillin sodium (Cloxacap)]
[8]
  The results of antibiotic drug inhibiting cancer cell lines (cell viability analysis), H1650: 86.43
[9]
  The results of antibiotic drug inhibiting cancer cell lines (cell viability analysis), A549: 98.33
[10]
  The results of antibiotic drug inhibiting cancer cell lines (cell viability analysis), MKN-45: 111.3
[1]; repeated experiment
  The results of antibiotic drug inhibiting cancer cell lines (cell viability analysis), Hep3B: 118.4
[2]; repeated experiment
  The results of antibiotic drug inhibiting cancer cell lines (cell viability analysis), LoVo: 98.38
[11]
  The results of antibiotic drug inhibiting cancer cell lines (cell viability analysis), A375: 110.7
[3]; BCC, repeated experiment
  The results of antibiotic drug inhibiting cancer cell lines (cell viability analysis), BCC: 116.6
[12]
  The results of antibiotic drug inhibiting cancer cell lines (cell viability analysis), HeLa: 120.1
[4]; C-33A, repeated experiment
  The results of antibiotic drug inhibiting cancer cell lines (cell viability analysis), C-33A: 104.6
T24; T24, repeated experiment
  The results of antibiotic drug inhibiting cancer cell lines (cell viability analysis), T24: 100.9
[13]
  The results of antibiotic drug inhibiting cancer cell lines (cell viability analysis), MCF-7: 103.7
[5]; MDA-MB231, repeated experiment
  The results of antibiotic drug inhibiting cancer cell lines (cell viability analysis), MDA-MB231: 101.6
BxPC-3; BxPC-3, repeated experiment
  The results of antibiotic drug inhibiting cancer cell lines (cell viability analysis), BxPC-3: 69.13
AsPC-1; AsPC-1, repeated experiment
  The results of antibiotic drug inhibiting cancer cell lines (cell viability analysis), AsPC-1: 80
NIH: OVCAR-3; NIH-OVCAR-3, repeated experiment
  The results of antibiotic drug inhibiting cancer cell lines (cell viability analysis), NIH-OVCAR-3: 106.9
TOV-21G
  The results of antibiotic drug inhibiting cancer cell lines (cell viability analysis), TOV-21G: 105.9
[6]; SAS, repeated experiment
  The results of antibiotic drug inhibiting cancer cell lines (cell viability analysis), SAS: 70.4
U-2OS; repeated experiment
  The results of antibiotic drug inhibiting cancer cell lines (cell viability analysis), U2OS: 69.87
[7]; 786-O, repeated experiment
  The results of antibiotic drug inhibiting cancer cell lines (cell viability analysis), 786-O: 106.1
